Consider 4 molecules from patent US20170071918A1 (THE UNIVERSITY OF HONG KONG, priority 2015, published 2017).

Several values for one entry are separate records, joined by “and”; a condition that tells them apart may be missing. Equal entries are not always repeated.

One data set concerns CD47 promoter activity. Put plainly: Luciferase reporter assay, CD47 promoter. It is filed as cell-based, human. The method, then: (§1) NF-κB promoter plasmid pNF-κB-Luc or CD47 luciferase promoter plasmid were transfected together with pRL-cytomegalovirus as normalization using Lipofectamine 2000 (Thermo Fisher Scientific). Cell were incubated for 48 hours prior to detection by Dual-Luciferase Reporter Assay System Kit (Promega) according to manufacterer's protocol. Gaussia Luciferase Assay Kit (GeneCopoeia) was used for CD47 detection. Samples were detected with Infinite F200 Tecan Multiplate reader (Tecan Austria GmbH).
Background: In a reporter assay the amount or activity of a reporter protein is the signal.

The subject of data set [1] is NF-κB binding to the CD47 promoter. The experiment in a line: ChIP-qPCR assay of NF-κB occupancy on the CD47 promoter. The format is cell-based, human. The method, then:
The cells were processed for ChIP assays according to Upstate CHIP protocol. Briefly, cells were cross-linked for 10 min with 1% formaldehyde and lysed. Lysate pellets were resuspended and sonicated with a Microson sonifier XL-2000 (Misonix) for 10 cycles (ON/OFF 30 seconds; amplitude 10 microns). Protein-DNA complexes were immunoprecipitated using p65 (C-20) antibody (Santa Cruz Technology, Santa Cruz, Calif.) or Normal rabbit IgG (Thermo Fisher Scientific, Rockford, Ill.) bound to protein A agarose, eluted, and digested with proteinase K. For qPCR analysis of the ChIP DNA samples before amplicon generation, QIAquick-purified immunoprecipitates were dissolved in 30 μl of water. Standard PCR reactions using […] of the immunoprecipitated DNA were performed with a SYBR Green PCR kit (Applied Biosystems) using primers which generates a PCR amplicon flanking −564 and -1740 base pairs upstream of the NM 001777 (CD47) transcription start site based on bioinformatics analysis on the Human Genome Build from the UCSC Genome Browser February 2009 (GRCh37/hg19) Assembly. Calculation of NF-κB occupancy on the CD47 promoter was performed according to the ChIP-qPCR primer assay data analysis template from Superarray Bioscience (Frederick, Md.).
(In general: Quantitative PCR measures a nucleic acid by following its amplification.)

The test system of data set [2] is NF-κB (nuclear p65 (Ser536), cytosolic p-IκBα (Ser32/36)). The experiment in a line: Western blotting of NF-κB activation. The format is cell-based, human. As for the experimental part: upon lysis with Buffer A (0.5 mM DTT, 10 mM HEPES, 10 mM KCl 1.5 mM MgCl2, pH7.9) for 15 minutes on ice and 0.5% NP-40 was added before extraction by centrifugation. The remaining pellet was treated with RIPA buffer (50 mM Tris-HCl pH7.4, 1% NP-40, 0.05% SDS 150 mM NaCl, 1 mM EDTA) for 30 minutes on ice and the nuclear fraction was obtained by centrifugation.
Western blots were developed using an ECL Plus kit (Amersham Biosciences, Piscataway, N.J.). The primary antibodies included mouse anti-human p65 (Ser536), mouse anti-human p-Akt (Ser473), anti-human p-Erk (Thr202/Tyr204), rabbit anti-human Bcl-2, rabbit anti-human cleaved caspase-9, rabbit anti-human cleaved PARP, mouse anti-human p-IκBα (Ser32/36) (Cell Signal Technology) and mouse anti-human α-tubulin, rabbit anti-human Bax, rabbit anti-human SP1 (PEP2) (Santa Cruz Technology, Santa Cruz, Calif.). After washing, the membrane was incubated with horseradish peroxidase-conjugated anti-mouse or rabbit antibody (Amersham) and then visualized with enhanced chemiluminescence plus according to the manufacturer's protocol.

A further data set deals with NF-κB promoter activity. The experiment in a line: Luciferase reporter assay, NF-κB promoter. It is filed as cell-based, human. As for the experimental part: as §1
A further data set concerns CD47 expression. The experiment in a line: Flow cytometric analysis of cell-surface CD47. It is filed as cell-based, human. The method, then: Phycoerythrin (PE)-conjugated CD47 (BD PharMingen, San Jose, Calif.), APC-conjugated CD133 (MACS Miltenyi Biotec), FITC-conjugated CD24 (MACS Miltenyi Biotec), FITC-conjugated EPCAM (Becton Dickinson), were incubated in phosphate-buffered saline (PBS) containing 2% fetal bovine serum (FBS) for 30 minutes at 4° C. Isotype-matched mouse immunoglobulins served as controls. The samples were analyzed using a Canto II flow cytometer and FACSdiva software (BD Biosciences, San Jose, Calif.).

In data set [3] the test system is Huh-7 cells (mock-treated and sorafenib-resistant). The experiment in a line: Annexin V staining apoptosis assay, Huh-7. It is filed as cell-based, human. The method, then: (§2) Cells were stained in binding buffer, proipidium iodide (PI) and FITC-conjugated Annexin V as provided by the Annexin-V-FLUO+S Staining Kit (Roche Diagnostics) according to manufacturer's instructions. Analysis was determined using a Canto II flow cytometer and FACSdiva software (BD Biosciences).

The subject of data set [4] is Bel-7402 cells (mock-treated and sorafenib-resistant). The experiment in a line: Annexin V staining apoptosis assay, Bel-7402. The format is cell-based, human. The method, then: as §2
The test system of data set [5] is patient-derived HCC tumor xenografts (PDTX#1 and PDTX#5). Put plainly: Sorafenib treatment of PDTX#1 and PDTX#5 xenografts (in vivo selection). The conditions noted are these: sorafenib 100 mg/kg oral for 31 days; NOD-SCID mice. The source says:
Using this in vivo treatment, we enriched the proportion of sorafenib-resistant HCC cells in residual tumors.

For the next data set, the system named is PDTX#5 tumor tissues. The experiment in a line: TUNEL assay of apoptotic nuclei in PDTX#5 tumors. The format is in vivo, mice. The conditions noted are these: tumors harvested day 31. The method, then:
The TUNEL assay was performed to detect apoptotic cells using in situ cell death detection kit (Roche Diagnostics, Indianapolis, Ind.). Briefly, paraffin-embedded tissues were fixed with 15 μg/mL proteinase K in 10 mM Tris/HCl at pH 7.4. The slides were then incubated with the TUNEL reaction mixture for 1 h at 37° C. After washing, the slides were incubated with a horseradish peroxidase-conjugated anti-fluorescein antibody for 30 min at 37° C. Stained slides were imaged on an Aperio Scanscope® CS imager (Vista, Calif.), generating 0.43 μm/pixel whole slide images. These images were compiled, and number of apoptotic nuclei was quantitated using the Aperio Spectrum® software with a pixel count algorithm.

For another data set, the system named is MHCC97L cells. Put plainly: Annexin V staining apoptosis assay, MHCC97L. The conditions noted are these: sorafenib 10 μM; MHCC97L shCD47 vs control. It is filed as cell-based, human. As for the experimental part:
as §2

The test system of data set [6] is mock-treated and sorafenib-resistant HCC cells (Bel-7402 and Huh-7). Put plainly: XTT cell proliferation assay. It is filed as cell-based, human. The conditions noted are these: sorafenib 5 to 25 μM, 48 h; mock-treated vs sorafenib-resistant cells. As for the experimental part: After 48 h, (2,3-Bis-(2-Methoxy-4-Nitro-5-Sulfophenyl)-2H-Tetrazolium-5-Carboxanilide) (XTT) dye, at a concentration of 5 mg/mL (Sigma-Aldrich, St Louis, Mo.), was added and the plates were incubated for 12 h in a moist chamber at 37° C. Optical density was determined by eluting the dye with dimethyl sulfoxide (Sigma-Aldrich) and the absorbance was measured at 570 nm. At least three independent experiments were performed.
Background: Tetrazolium assays rely on reduction of a dye to a coloured formazan, in cell work by metabolically active cells.

For the next data set, the target named is CD47 (human) (UniProt Q08722). Put plainly: cell-based or functional assay.
Where [7] appears, read: TNF-α for 1 hour, Bel-7402 and PLC/PRF/5 cells.
[8] abbreviates: TNF-α 20 ng/mL, PLC/PRF/5 and Bel-7402 cells.
The mark [9] stands for this setting: IMD-0354, Huh-7 and MHCC97L cells.

On to TNF-α, for which the CD47 promoter activity result in the data set with CD47 promoter activity (setting [7]) was “corresponding increase in CD47 promoter activity”. Besides, the “Fold enrichment of NF-κB binding relative to background” value in data set [1] (Bel-7402 cells, site 1, 20 ng/mL TNF-α, 1 hour before fixation (untreated 1.5-fold)) was found to be 2.5 fold; in data set [1] (Bel-7402 cells, site 2, 20 ng/mL TNF-α, 1 hour before fixation (untreated 1.6-fold)), 2.5 fold. Further, in [2] (setting [8]), the “NF-κB activation (nuclear p65 (Ser536) and cytosolic p-IκBα (Ser32/36))” value is reported as “successfully induced NF-κB activation”. For the same molecule, the NF-κB promoter activity entry with NF-κB promoter activity (setting [7]) is on record as “increase in NF-κB promoter activity”. Also, in the data set with CD47 expression (setting [8]), the “CD47 expression on the surface of HCC cells” value is reported as “increase in CD47 expression”.

Regarding `O=C(Nc1cc(C(F)(F)F)cc(C(F)(F)F)c1)c1cc(Cl)ccc1O` [IMD-0354], the “Toxic effects on cells” value in [3] (0.05 μM IMD-0354, Huh-7) was “no toxic effects”; in data set [4] (0.5 μM IMD-0354, Bel-7402), “no toxic effects”. Besides, the Sensitization to sorafenib result in [3] (0.05 μM IMD-0354 cotreatment with sorafenib, Huh-7) is reported as “sensitized”; in data set [4] (0.5 μM IMD-0354 cotreatment with sorafenib, Bel-7402) it was “sensitized”. Besides, the “Annexin V-positive (apoptotic) cells” value in data set [3] (sorafenib plus IMD-0354, mock-treated Huh-7) was 50.2%; in [3] (sorafenib plus IMD-0354, sorafenib-resistant Huh-7), 33.9%; in data set [4] (sorafenib plus IMD-0354 at 0.5 μM, mock-treated Bel-7402) it was 30.8%; in data set [4] (sorafenib plus IMD-0354 at 0.5 μM, sorafenib-resistant Bel-7402), 32.9%. In the data set with CD47 promoter activity (setting [9]), the CD47 promoter activity result is recorded as “significantly down-regulated”. Also, the “Fold enrichment of NF-κB binding relative to background” value in data set [1] (Huh-7 cells, site 1, 1 μM IMD-0354 for 24 hours (untreated 1.4-fold)) was found to be 1.1 fold; in data set [1] (Huh-7 cells, site 2, 1 μM IMD-0354 for 24 hours (untreated 1.8-fold)) it was 0.9 fold; in data set [1] (MHCC97L cells, site 1, 3 μM IMD-0354 for 24 hours (untreated 4.3-fold)) it was 1.4 fold; in data set [1] (MHCC97L cells, site 2, 3 μM IMD-0354 for 24 hours (untreated 2.8-fold)), 1.5 fold. Further, in data set [2] (IMD-0354 at 1 μM in Huh-7 and 3 μM in MHCC97L cells), the “NF-κB activation (phosphorylation of p65 and IκBα)” value was “effectively suppressed NF-κB activation”. Besides, the NF-κB promoter activity entry in the data set on NF-κB promoter activity (setting [9]) is on record as “significantly down-regulated”. Moreover, the “Cell-surface expression of CD47” value with CD47 expression (IMD-0354, MHCC97L and Huh-7 cells) is “reduction in cell-surface expression of CD47”.

For `CNC(=O)c1cc(Oc2ccc(NC(=O)Nc3ccc(Cl)c(C(F)(F)F)c3)cc2)ccn1` [sorafenib], the “Sensitivity of cells to sorafenib after CD47 knockdown” value in data set [3] (sorafenib 10 μM, Huh-7 shCD47 vs control) is given as “increased the sensitivity of cells to sorafenib”; in the data set with MHCC97L cells, “increased the sensitivity of cells to sorafenib”. In addition, the “Annexin V-positive (apoptotic) cells” value is 37.7% and 43.0% in [3] (sorafenib alone, mock-treated Huh-7); 28.4% and 35.1% in [3] (sorafenib alone, sorafenib-resistant Huh-7); 57.9% in [3] (sorafenib, mock-treated Huh-7, after CD47 knockdown); 48.8% in data set [3] (sorafenib, mock-treated Huh-7, before CD47 knockdown (nontarget control)); 56.9% in [3] (sorafenib, sorafenib-resistant Huh-7, after CD47 knockdown); 38.8% in data set [3] (sorafenib, sorafenib-resistant Huh-7, before CD47 knockdown (nontarget control)). Moreover, the “Annexin V-positive (apoptotic) cells” value in [4] (sorafenib 15 μM, mock-treated Bel-7402, after CD47 knockdown) was 38%; in [4] (sorafenib 15 μM, mock-treated Bel-7402, before CD47 knockdown (nontarget control)), 25.2%; in [4] (sorafenib 15 μM, sorafenib-resistant Bel-7402, after CD47 knockdown), 37.6%; in data set [4] (sorafenib 15 μM, sorafenib-resistant Bel-7402, before CD47 knockdown (nontarget control)), 19.1%; in [4] (sorafenib alone, mock-treated Bel-7402) it was 29.0%; in [4] (sorafenib alone, sorafenib-resistant Bel-7402), 14.9% and 13.2%. Besides, the “Effect on xenograft tumors” value in data set [5] is recorded as “tumor inhibition”. In addition, the “Percentage of apoptotic nuclei in tumor tissues (TUNEL)” value with PDTX#5 tumor tissues is listed as “higher”. The “Growth-suppressive effect on cell proliferation” value in data set [6] is listed as “significantly greater in mock-treated cells”.

B1: Monoclonal antibody against CD47 (B6H12) (antibody, from another filing, V domains shown)
VH: EVQLVESGGDLVKPGGSLKLSCAASGFTFSGYGMSWVRQTPDKRLEWVATITSGGTYTYYPDSVKGRFTISRDNAKNTLYLQIDSLKSEDTAIYFCARSLAGNAMDYWGQGTSVTVSS
VL: DIVMTQSPATLSVTPGDRVSLSCRASQTISDYLHWYQQKSHESPRLLIKFASQSISGIPSRFSGSGSGSDFTLSINSVEPEDVGVYYCQNGHGFPRTFGGGTKLEIK
With B1, in the data set with CD47 (human), the sorafenib sensitivity, mock-treated Bel-7402 cells, without to with anti-CD47 antibody at 2 µg/mL lay in the range of 29 to 37.6%; the sorafenib sensitivity, mock-treated Huh-7 cells, without to with anti-CD47 antibody at 2 µg/mL was 43 to 48.5%; the sorafenib sensitivity, sorafenib-resistant Bel-7402 cells, without to with anti-CD47 antibody at 2 µg/mL fell in the range of 13.2 to 38.4%; the sorafenib sensitivity, sorafenib-resistant Huh-7 cells, without to with anti-CD47 antibody at 2 µg/mL lay in the range of 35.1 to 39.3%.
